# Measured values published in patent publication EP3964221A1, “ANTIVIRAL AGENTS” (priority 2020, dated 2022).
# Where two headings read alike, the source gives them in different places.
# How the values were obtained:
# Herpes simplex = conditions: added to the assays after infection; cited from earlier work
# [1] = test system: Influenza A virus (Flu A, H1N1); experiment: Curative approach, plaque reduction assay; format: cell-based
# [2] = test system: Rhinovirus (RV, subtype 14); experiment: Curative approach, plaque reduction assay; format: cell-based; conditions: active control at concentrations between 5-50 µg mL^-1
# [3] = test system: Respiratory Syncytial Virus (RSV, type long strain); experiment: Curative approach, plaque reduction assay; format: cell-based; conditions: active control at concentrations between 5-50 µg mL^-1
# [4] = test system: Influenza A virus (Flu A, H1N1); experiment: Virucidal (preventive) approach, pretreatment of cell-free virus, plaque forming units; format: cell-based; conditions: positive control at 0.3%; 2 and 24 h incubation
# [5] = test system: Rhinovirus (RV, subtype 14); experiment: as above; format: cell-based; conditions: positive control at 0.3%; 2 and 24 h incubation
# [6] = test system: Respiratory Syncytial Virus (RSV, type long strain); experiment: as above; format: cell-based; conditions: positive control at 0.3%; 2 and 24 h incubation
# [7] = test system: Adenovirus C (AV, subtype 5); format: cell-based; conditions: positive control at 0.3%
compound,measurement,setting,value
CC1=CCC2CC1C2(C)C (stereo not drawn) [α-pinene],reduction of Herpes simplex induced plaques,Herpes simplex,30-40%
"NC(=O)c1ncn([C@@H]2O[C@H](CO)[C@@H](O)[C@H]2O)n1 [Ribavirin, ribavirin]","plaque formation (visual, Fig. 3)",[1]; active control,prevented plaque formation almost completely
same,inhibited plaque formation,[1]; active control at concentrations between 5-50 µg mL^-1,70-96%
same,inhibited plaque formation,[2],70-96%
same,inhibited plaque formation,[3],70-96%
C=C1CCC2CC1C2(C)C (stereo not drawn) [β-pinene],reduction of Herpes simplex induced plaques,Herpes simplex,10-20%
C=C(C)[C@H]1CC=C(C)CC1 [limonene],reduction of Herpes simplex induced plaques,Herpes simplex,10-20%
"CC12CCC(CC1)C(C)(C)O2 [1,8-cineol]",reduction of Herpes simplex induced plaques,Herpes simplex,30-40%
"CCCCCCCCCCCCOS(=O)(=O)[O-].[Na+] [SDS, Sodium dodecyl sulfate]",lowered infectivity,[4],56-100%
same,lowered infectivity,[5],56-100%
same,lowered infectivity,[6],56-100%
same,lowered infectivity,[7]; 2 h incubation,52%
same,lowered infectivity,[7]; 24 h incubation,63%
Nc1nc2c(ncn2COCCO)c(=O)[nH]1 [acyclovir],reduction of Herpes simplex induced plaques,Herpes simplex,100%
